This assay deals with T1, Protoporphyrinogen IX oxidase (Zea mays, UniProt Q9FYV8).
T1 sequence (Q9FYV8 whole entry): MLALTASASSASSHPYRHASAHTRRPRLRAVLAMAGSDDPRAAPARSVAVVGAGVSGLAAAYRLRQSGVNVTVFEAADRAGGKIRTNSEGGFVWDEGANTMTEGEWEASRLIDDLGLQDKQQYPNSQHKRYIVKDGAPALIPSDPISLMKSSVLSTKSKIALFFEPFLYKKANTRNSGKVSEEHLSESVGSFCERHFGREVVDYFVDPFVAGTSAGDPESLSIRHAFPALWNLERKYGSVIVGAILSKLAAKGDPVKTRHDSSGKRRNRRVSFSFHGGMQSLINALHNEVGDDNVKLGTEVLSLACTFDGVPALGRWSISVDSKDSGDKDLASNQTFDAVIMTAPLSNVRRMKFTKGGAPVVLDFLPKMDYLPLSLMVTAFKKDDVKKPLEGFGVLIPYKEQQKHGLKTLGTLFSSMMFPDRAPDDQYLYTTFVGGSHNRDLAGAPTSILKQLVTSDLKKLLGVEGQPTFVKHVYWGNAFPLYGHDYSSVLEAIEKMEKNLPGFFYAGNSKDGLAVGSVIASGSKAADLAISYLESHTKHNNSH
Kind of assay: Inhibition of Zea mays cv. Anjou (maize) plastid Protoporphyrinogen IX oxidase assessed as inhibition of protoporphyrin IX by fluorescence spectrophotometry. The settings on record: read-out: pI50 (converted).

In the case of `O=c1n(-c2ccc(Br)cc2)c(=S)n2n1CCCC2`, the IC50 is 0.0129 µM. Regarding `S=c1n(-c2ccc(Br)cc2)c(=S)n2n1CCC2`, the IC50 was 0.0288 µM. On to `O=c1s/c(=N\c2ccc(Br)cc2)n2n1CCC2`, for which the IC50 is 3.63 µM. With `O=c1n(-c2ccc(Br)cc2)c(=O)n2n1CCC2` the figure was 0.617 µM. In the case of `S=c1s/c(=N\c2ccc(Br)cc2)n2n1CCC2`, the IC50 was 0.324 µM. In the case of `O=c1n(-c2ccc(Br)cc2)c(=O)n2n1CCCC2`, the IC50 was 0.339 µM. With `O=c1n(-c2ccc(Br)cc2)c(=O)n2n1CCCCC2` the figure was 2.51 µM. Next, `S=c1n(-c2ccc(Br)cc2)c(=S)n2n1CCCCC2`: 0.0708 µM. Take `O=c1n(-c2ccc(Br)cc2)c(=S)n2n1CCC2`: the IC50 is 0.0537 µM. As to `O=c1n(-c2ccc(Br)cc2)c(=S)n2n1CCCCC2`, the IC50 was 0.129 µM. With `O=C1C2=C(CCCC2)C(=O)N1c1ccc(Br)cc1` the figure was 0.0501 µM.

Values taken from ChEMBL document CHEMBL3044890, “Peroxidizing Phytotoxicities of 1, 2-Alkylene-1, 2, 4-triazolidines and 3, 4-Alkylene-1, 3, 4-thiadiazolidines” (J Pestic Sci, 1996).
